# Target: T1, human PAH with the R408W mutation (Homo sapiens, UniProt P00439, R408W)
# T1 construct: expressed in transfected cells
# T1 sequence (P00439 1-452 R408W): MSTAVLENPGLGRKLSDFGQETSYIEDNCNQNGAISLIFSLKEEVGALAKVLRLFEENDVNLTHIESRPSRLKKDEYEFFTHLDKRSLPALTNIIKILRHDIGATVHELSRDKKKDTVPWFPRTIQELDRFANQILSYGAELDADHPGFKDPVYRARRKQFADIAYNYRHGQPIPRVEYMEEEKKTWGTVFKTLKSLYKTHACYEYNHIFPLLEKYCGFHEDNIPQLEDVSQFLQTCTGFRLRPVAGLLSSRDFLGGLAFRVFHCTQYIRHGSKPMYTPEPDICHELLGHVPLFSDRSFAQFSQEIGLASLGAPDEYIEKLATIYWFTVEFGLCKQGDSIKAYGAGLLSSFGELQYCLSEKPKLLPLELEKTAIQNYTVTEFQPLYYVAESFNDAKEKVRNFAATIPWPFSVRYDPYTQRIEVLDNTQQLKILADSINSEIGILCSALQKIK
# Assay: Cell Based Phenylalanine Flux Assay
# Settings: A375 cells expressing human R408W PAH; 24 hrs compound incubation; 13C-Tyrosine by LC-MS; average where tested multiple times; read-out: AC50
row,Structure (SMILES),AC50
1,"O=C(C1CC1)N1CCc2[nH]cnc2[C@@H]1c1cc2ccccc2nn1 [Example 216, (R)-(4-(cinnolin-3-yl)-6,7-dihydro-1H-imidazo[4,5-c]pyridin-5(4H)-yl)(cyclopropyl)methanone]",1000 to 5000 nM
2,"CC(C)(F)c1nnc(C(=O)N2CCc3[nH]cnc3[C@H]2c2cc3ccccc3nn2)o1 [Example 218, (S)-(4-(cinnolin-3-yl)-6,7-dihydro-1H-imidazo[4,5-c]pyridin-5(4H)-yl)(5-(2-fluoropropan-2-yl)-1,3,4-oxadiazol-2-yl)methanone]",500 to 1000 nM
3,"O=C(CCc1nccs1)N1CCc2[nH]cnc2[C@H]1c1ccc2ccccc2c1 [Example 219, (R)-1-(4-(naphthalen-2-yl)-6,7-dihydro-1H-imidazo[4,5-c]pyridin-5(4H)-yl)-3-(thiazol-2-yl)propan-1-one]",500 to 1000 nM
4,"O=C(c1cncs1)N1CCc2[nH]cnc2[C@H]1c1ccc2ccccc2c1 [Example 221, (R)-(4-(naphthalen-2-yl)-6,7-dihydro-1H-imidazo[4,5-c]pyridin-5(4H)-yl)(thiazol-5-yl)methanone]",1000 to 5000 nM
5,"O=C(c1cncs1)N1CCc2[nH]cnc2[C@@H]1c1ccc2ccccc2c1 [Example 222, (S)-(4-(naphthalen-2-yl)-6,7-dihydro-1H-imidazo[4,5-c]pyridin-5(4H)-yl)(thiazol-5-yl)methanone]",> 5000 nM
6,"O=C(c1cnc(-c2ccccn2)s1)N1CCc2[nH]cnc2[C@H]1c1ccc2ccccc2c1 [Example 223, (R)-(4-(naphthalen-2-yl)-6,7-dihydro-1H-imidazo[4,5-c]pyridin-5(4H)-yl)(2-(pyridin-2-yl)thiazol-5-yl)methanone]",1000 to 5000 nM
7,"O=C(c1cnc(-c2ccccn2)s1)N1CCc2[nH]cnc2[C@@H]1c1ccc2ccccc2c1 [Example 224, (S)-(4-(naphthalen-2-yl)-6,7-dihydro-1H-imidazo[4,5-c]pyridin-5(4H)-yl)(2-(pyridin-2-yl)thiazol-5-yl)methanone]",> 5000 nM
8,"O=C(c1cnn2ccccc12)N1CCc2[nH]cnc2[C@H]1c1cn2ccccc2n1 [Example 225, (R)-(4-(imidazo[1,2-a]pyridin-2-yl)-6,7-dihydro-1H-imidazo[4,5-c]pyridin-5(4H)-yl)(pyrazolo[1,5-a]pyridin-3-yl)methanone]",< 500 nM
9,"O=C(c1cnn2ccccc12)N1CCc2[nH]cnc2[C@@H]1c1cn2ccccc2n1 [Example 226, (S)-(4-(imidazo[1,2-a]pyridin-2-yl)-6,7-dihydro-1H-imidazo[4,5-c]pyridin-5(4H)-yl)(pyrazolo[1,5-a]pyridin-3-yl)methanone]",> 5000 nM
10,"Cc1ncoc1C(=O)N1CCc2[nH]cnc2[C@@H]1c1cn2ccccc2n1 [Example 227, (S)-(4-(imidazo[1,2-a]pyridin-2-yl)-6,7-dihydro-1H-imidazo[4,5-c]pyridin-5(4H)-yl)(4-methyloxazol-5-yl)methanone]",> 5000 nM
11,"Cc1ncoc1C(=O)N1CCc2[nH]cnc2[C@H]1c1cn2ccccc2n1 [Example 228, (R)-(4-(imidazo[1,2-a]pyridin-2-yl)-6,7-dihydro-1H-imidazo[4,5-c]pyridin-5(4H)-yl)(4-methyloxazol-5-yl)methanone]",1000 to 5000 nM
12,"FC(F)c1nnc(N2CCc3[nH]cnc3[C@H]2c2cn3ccccc3n2)o1 [Example 230, (R)-2-(difluoromethyl)-5-(4-(imidazo[1,2-a]pyridin-2-yl)-6,7-dihydro-1H-imidazo[4,5-c]pyridin-5(4H)-yl)-1,3,4-oxadiazole]",500 to 1000 nM
13,"FC(F)(F)c1cnc(N2CCc3[nH]cnc3[C@H]2c2cn3ccccc3n2)nc1 [Example 231, (R)-4-(imidazo[1,2-a]pyridin-2-yl)-5-(5-(trifluoromethyl)pyrimidin-2-yl)-4,5,6,7-tetrahydro-1H-imidazo[4,5-c]pyridine]",< 500 nM
14,"FC(F)(F)c1cnc(N2CCc3[nH]cnc3[C@@H]2c2cn3ccccc3n2)nc1 [Example 232, (S)-4-(imidazo[1,2-a]pyridin-2-yl)-5-(5-(trifluoromethyl)pyrimidin-2-yl)-4,5,6,7-tetrahydro-1H-imidazo[4,5-c]pyridine]",> 5000 nM
15,"O=C(c1ocnc1C(F)(F)F)N1CCc2[nH]cnc2[C@@H]1c1cn2ccccc2n1 [Example 233, (S)-(4-(imidazo[1,2-a]pyridin-2-yl)-6,7-dihydro-1H-imidazo[4,5-c]pyridin-5(4H)-yl)(4-(trifluoromethyl)oxazol-5-yl)methanone]",> 5000 nM
16,"O=C(c1ocnc1C(F)(F)F)N1CCc2[nH]cnc2[C@H]1c1cn2ccccc2n1 [Example 234, (R)-(4-(imidazo[1,2-a]pyridin-2-yl)-6,7-dihydro-1H-imidazo[4,5-c]pyridin-5(4H)-yl)(4-(trifluoromethyl)oxazol-5-yl)methanone]",< 500 nM

row,Structure (SMILES),AC50
1,"O=C(CC1CC1)N1CCc2[nH]cnc2[C@@H]1c1cn2ccccc2n1 [Example 237, (S)-2-cyclopropyl-1-(4-(imidazo[1,2-a]pyridin-2-yl)-6,7-dihydro-1H-imidazo[4,5-c]pyridin-5(4H)-yl)ethanone]",> 5000 nM
2,"O=C(CC1CC1)N1CCc2[nH]cnc2[C@H]1c1cn2ccccc2n1 [Example 238, (R)-2-cyclopropyl-1-(4-(imidazo[1,2-a]pyridin-2-yl)-6,7-dihydro-1H-imidazo[4,5-c]pyridin-5(4H)-yl)ethanone]",< 500 nM
3,"O=C(c1oc(C2CC2)nc1C(F)(F)F)N1CCc2[nH]cnc2[C@H]1c1cn2ccccc2n1 [Example 240, (R)-(2-cyclopropyl-4-(trifluoromethyl)oxazol-5-yl)(4-(imidazo[1,2-a]pyridin-2-yl)-6,7-dihydro-1H-imidazo[4,5-c]pyridin-5(4H)-yl)methanone]",< 500 nM
4,"O=C(CCC1CC1)N1CCc2[nH]cnc2[C@@H]1c1cn2ccccc2n1 [Example 241, (S)-3-cyclopropyl-1-(4-(imidazo[1,2-a]pyridin-2-yl)-6,7-dihydro-1H-imidazo[4,5-c]pyridin-5(4H)-yl)propan-1-one]",> 5000 nM
5,"O=C(CCC1CC1)N1CCc2[nH]cnc2[C@H]1c1cn2ccccc2n1 [Example 242, (R)-3-cyclopropyl-1-(4-(imidazo[1,2-a]pyridin-2-yl)-6,7-dihydro-1H-imidazo[4,5-c]pyridin-5(4H)-yl)propan-1-one]",< 500 nM
6,"O=C(c1ocnc1C1CC1)N1CCc2[nH]cnc2[C@@H]1c1cn2ccccc2n1 [Example 243, (S)-(4-cyclopropyloxazol-5-yl)(4-(imidazo[1,2-a]pyridin-2-yl)-6,7-dihydro-1H-imidazo[4,5-c]pyridin-5(4H)-yl)methanone]",1000 to 5000 nM
7,"O=C(c1ocnc1C1CC1)N1CCc2[nH]cnc2[C@H]1c1cn2ccccc2n1 [Example 244, (R)-(4-cyclopropyloxazol-5-yl)(4-(imidazo[1,2-a]pyridin-2-yl)-6,7-dihydro-1H-imidazo[4,5-c]pyridin-5(4H)-yl)methanone]",500 to 1000 nM
8,"CC(C)(C)c1ncc(C(=O)N2CCc3[nH]cnc3[C@H]2c2cn3ccccc3n2)s1 [Example 245, (R)-(2-(tert-butyl)thiazol-5-yl)(4-(imidazo[1,2-a]pyridin-2-yl)-6,7-dihydro-1H-imidazo[4,5-c]pyridin-5(4H)-yl)methanone]",500 to 1000 nM
9,"CC(C)(C)c1ncc(C(=O)N2CCc3[nH]cnc3[C@@H]2c2cn3ccccc3n2)s1 [Example 246, (S)-(2-(tert-butyl)thiazol-5-yl)(4-(imidazo[1,2-a]pyridin-2-yl)-6,7-dihydro-1H-imidazo[4,5-c]pyridin-5(4H)-yl)methanone]",> 5000 nM
10,"CC(C)(F)c1ncc(C(=O)N2CCc3[nH]cnc3[C@@H]2c2cn3ccccc3n2)s1 [Example 247, (S)-(2-(2-fluoropropan-2-yl)thiazol-5-yl)(4-(imidazo[1,2-a]pyridin-2-yl)-6,7-dihydro-1H-imidazo[4,5-c]pyridin-5(4H)-yl)methanone]",> 5000 nM
11,"CC(C)(F)c1ncc(C(=O)N2CCc3[nH]cnc3[C@H]2c2cn3ccccc3n2)s1 [Example 248, (R)-(2-(2-fluoropropan-2-yl)thiazol-5-yl)(4-(imidazo[1,2-a]pyridin-2-yl)-6,7-dihydro-1H-imidazo[4,5-c]pyridin-5(4H)-yl)methanone]",500 to 1000 nM
12,"CC(C)(C)c1ncc(C(=O)N2CCc3[nH]cnc3[C@H]2c2cn3ccccc3n2)o1 [Example 250, (R)-(2-(tert-butyl)oxazol-5-yl)(4-(imidazo[1,2-a]pyridin-2-yl)-6,7-dihydro-1H-imidazo[4,5-c]pyridin-5(4H)-yl)methanone]",500 to 1000 nM
13,"O=C(c1cnc(C2(F)CCC2)s1)N1CCc2[nH]cnc2[C@H]1c1cn2ccccc2n1 [Example 251, (R)-(2-(1-fluorocyclobutyl)thiazol-5-yl)(4-(imidazo[1,2-a]pyridin-2-yl)-6,7-dihydro-1H-imidazo[4,5-c]pyridin-5(4H)-yl)methanone]",1000 to 5000 nM
14,"O=C(c1cnc(C2(F)CCC2)s1)N1CCc2[nH]cnc2[C@@H]1c1cn2ccccc2n1 [Example 252, (S)-(2-(1-fluorocyclobutyl)thiazol-5-yl)(4-(imidazo[1,2-a]pyridin-2-yl)-6,7-dihydro-1H-imidazo[4,5-c]pyridin-5(4H)-yl)methanone]",> 5000 nM
15,"O=C(CC1CC(F)C1)N1CCc2[nH]cnc2[C@@H]1c1cn2ccccc2n1 (stereo partly drawn) [Example 253, (S)-2-(3-fluorocyclobutyl)-1-(4-(imidazo[1,2-a]pyridin-2-yl)-6,7-dihydro-1H-imidazo[4,5-c]pyridin-5(4H)-yl)ethanone]",1000 to 5000 nM
